Laboratory results reported in patent US5430062A, “Stilbene derivatives as anticancer agents” (priority 1993, dated 1995).
Where two headings read alike, the source gives them in different places.

Columns and labels:
[1] = test system: HT-29 colon adenocarcinoma; assay: MTT cytotoxicity assay, HT-29; conditions: Homo sapiens, HT-29, […]
SKMEL-5 melanoma = assay: MTT cytotoxicity assay, SKMEL-5; conditions: Homo sapiens, SK-MEL-5, […], read-out: Cytotoxicity ED50, SKMEL-5
MLM melanoma = assay: MTT cytotoxicity assay, MLM
A-549 lung carcinoma = assay: MTT cytotoxicity assay, A-549; conditions: Homo sapiens, A549, […]
MCF-7 breast carcinoma = assay: MTT cytotoxicity assay, MCF-7; conditions: Homo sapiens, MCF7, […]
[2] = read-out: Cytotoxicity ED50, HT-29
[3] = […], read-out: Cytotoxicity ED50, MLM
[4] = read-out: Cytotoxicity ED50, A-549
[5] = read-out: Cytotoxicity ED50, MCF-7

Row | Compound | IC50 [1, 2] | IC50 (SKMEL-5 melanoma) | IC50 (MLM melanoma; [3]) | IC50 (A-549 lung carcinoma; [4]) | IC50 (MCF-7 breast carcinoma; [5]) | IC50 ([1]; read-out: Cytotoxicity ED50, HT-29, HT-29, MTT, six days) | IC50 (MLM melanoma; […], read-out: Cytotoxicity ED50, MLM, MLM, MTT, six days) | IC50 (A-549 lung carcinoma; read-out: Cytotoxicity ED50, A-549, A-549, MTT, six days) | IC50 (MCF-7 breast carcinoma; read-out: Cytotoxicity ED50, MCF-7, MCF-7, MTT, six days) | IC50 (MLM melanoma; read-out: Cytotoxicity ED50, MLM, MLM, MTT, six days, 8640 min)
1 | COc1cc(/C=C/c2ccc([N+](=O)[O-])cc2)cc(OC)c1OC [compound 6l, (E)-1-(4-Nitrophenyl)-2-(3,4,5-trimethoxyphenyl)ethene] | > 25 µM | > 25 µM | > 25 µM | > 25 µM | > 25 µM | – | – | – | – | –
2 | COc1ccc(/C=C/c2cc(OC)cc(OC)c2)cc1 [16i, (E)-1-(3,5-Dimethoxyphenyl)-2-(4-methoxyphenyl)ethene] | 6.9 µM | 0.88 µM | > 25 µM | 7.5 µM | 9.7 µM | – | – | – | – | –
3 | COc1ccc(C(=O)Nc2cc(OC)c(OC)c(OC)c2)cc1OC [11b] | > 25 µM | > 25 µM | > 25 µM | > 25 µM | > 25 µM | – | – | – | – | –
4 | COc1cc(CCc2cccnc2)cc(OC)c1OC [8j, 1-(3-Pyridyl)-2-(3,4,5-trimethoxyphenyl)ethane] | > 25 µM | > 25 µM | > 25 µM | 12.2 µM | > 25 µM | – | – | – | – | –
5 | COc1ccc(CNc2cc(OC)cc(OC)c2)cc1 [12e] | > 25 µM | > 25 µM | > 25 µM | > 25 µM | > 25 µM | – | – | – | – | –
6 | COc1ccc(/C=C/c2ccccc2)cc1OC [6q, (E)-1-(3,4-Dimethoxyphenyl)-2-phenylethene] | > 25 µM | > 25 µM | > 25 µM | > 25 µM | > 25 µM | – | – | – | – | –
7 | COc1cc(/C=C/c2ccc(O[Si](C)(C)C(C)(C)C)cc2)cc(OC)c1OC [6m, (E)-1-[(4-t-Butyldimethylsilyloxy)phenyl]-2-(3,4,5-trimethoxyphenyl)ethene] | > 25 µM | > 25 µM | > 25 µM | > 25 µM | > 25 µM | – | – | – | – | –
8 | CCc1ccc(/C=C/c2cc(OC)c(OC)c(OC)c2)cc1 [16e, (E)-(4-Ethylphenyl)-2-(3,4,5-trimethoxyphenyl)ethene] | 0.11 µM | 0.17 µM | 0.22 µM | 0.13 µM | 1.2 µM | – | – | – | – | –
9 | COc1cc(/C=C/c2ccc(OC(C)=O)cc2)cc(OC)c1OC [6p, (E)-1-(4-Acetoxyphenyl)-2-(3,4,5-trimethoxyphenyl)ethene] | 5.4 µM | 4.6 µM | 13 µM | 9.7 µM | 9.6 µM | – | – | – | – | –
10 | COc1cc(/C=C/c2ccc(C(C)(C)C)cc2)cc(OC)c1OC [16g, (E)-1-(4-t-Butylphenyl)-2-(3,4,5-trimethoxyphenyl)ethene] | > 25 µM | > 25 µM | > 25 µM | > 25 µM | > 25 µM | – | – | – | – | –
11 | COc1ccc(CNc2cc(OC)c(OC)c(OC)c2)cc1OC [12b] | > 25 µM | > 25 µM | > 25 µM | > 25 µM | > 25 µM | – | – | – | – | –
12 | CCCOc1ccc(/C=C/c2cc(OC)c(OC)c(OC)c2)cc1 [16b, (E)-1-(4-n-Propoxyphenyl)-2-(3,4,5-trimethoxyphenyl)ethene] | > 25 µM | > 25 µM | > 25 µM | 9.2 µM | 12.5 µM | – | – | – | – | –
13 | COc1cc(/C=C/c2ccc(OC)c(OC)c2)cc(OC)c1 [6y] | > 25 µM | > 25 µM | > 25 µM | > 25 µM | > 25 µM | – | – | – | – | –
14 | COc1cc(/C=C/c2ccc(Br)cc2)cc(OC)c1OC [6h] | 12.7 µM | 6.53 µM | 5.13 µM | 6.47 µM | 9.14 µM | – | – | – | – | –
15 | COc1ccc(/C=C/c2cc(OC)c(O[Si](C)(C)C(C)(C)C)c(OC)c2)cc1 [16k, (E)-1-[4-{(t-Butyldimethylsilyl)-oxy}-3,5-(dimethoxy)-phenyl]-2-(4-methoxyphenyl)ethene] | > 25 µM | > 25 µM | > 25 µM | > 25 µM | > 25 µM | – | – | – | – | –
16 | COc1cc(OC)c(OC)cc1CCc1cc(OC)c(OC)c(OC)c1 [8v] | > 25 µM | > 25 µM | > 25 µM | > 25 µM | > 25 µM | – | – | – | – | –

Row | Compound | IC50 [1, 2] | IC50 (SKMEL-5 melanoma) | IC50 (MLM melanoma; [3]) | IC50 (A-549 lung carcinoma; [4]) | IC50 (MCF-7 breast carcinoma; [5]) | IC50 ([1]; read-out: Cytotoxicity ED50, HT-29, HT-29, MTT, six days) | IC50 (MLM melanoma; […], read-out: Cytotoxicity ED50, MLM, MLM, MTT, six days) | IC50 (A-549 lung carcinoma; read-out: Cytotoxicity ED50, A-549, A-549, MTT, six days) | IC50 (MCF-7 breast carcinoma; read-out: Cytotoxicity ED50, MCF-7, MCF-7, MTT, six days) | IC50 (MLM melanoma; read-out: Cytotoxicity ED50, MLM, MLM, MTT, six days, 8640 min)
17 | COc1cc(/C=C\c2ccc(C)cc2)cc(OC)c1OC [15d, (Z)-(4-Methylphenyl)-2-(3,4,5-trimethoxyphenyl)ethene] | 0.0023 µM | 0.00083 µM | 0.0066 µM | 0.00094 µM | 0.024 µM | – | – | – | – | –
18 | COc1cc(/C=C/c2ccc(O)cc2)cc(OC)c1OC [compound 6o, (E)-1-(4-Hydroxyphenyl)-2-(3,4,5-trimethoxyphenyl)ethene] | > 25 µM | 11.6 µM | 24.2 µM | > 25 µM | 18.6 µM | – | – | – | – | –
19 | COc1ccc(/C=C/c2cc(OC)c(OC(C)=O)c(OC)c2)cc1 [16l, (E)-1-(4-Acetoxy-3,5-dimethoxyphenyl)-2-(4-methoxy-phenyl)ethene] | 11.7 µM | 10.2 µM | 21 µM | 16.4 µM | 19.4 µM | – | – | – | – | –
20 | COc1cc(CCc2ccc(NC(C)=O)cc2)cc(OC)c1OC [compound 8m, 1-(4-Acetamidophenyl)-2-(3,4,5-trimethoxyphenyl)ethane] | > 25 µM | > 25 µM | > 25 µM | > 25 µM | > 25 µM | – | – | – | – | –
21 | COc1ccc(/C=C/c2ccc(OC)c(OC)c2)cc1 [16h, (E)-(4-Methoxyphenyl)-2-(3,4-dimethoxyphenyl)ethene] | > 25 µM | > 25 µM | > 25 µM | 11.7 µM | > 25 µM | – | – | – | – | –
22 | COc1ccccc1CCc1cc(OC)c(OC)c(OC)c1 [8c] | > 25 µM | 20 µM | > 25 µM | 13.5 µM | 11.8 µM | – | – | – | – | –
23 | COc1ccc(/C=C/c2ccccc2)c(OC)c1OC [6r, (E)-1-Phenyl-2-(2,3,4-trimethoxyphenyl)ethene] | > 25 µM | > 25 µM | > 25 µM | > 25 µM | > 25 µM | – | – | – | – | –
24 | COc1cc(OC)c(OC)cc1/C=C/c1ccccc1 [6w] | > 25 µM | > 25 µM | > 25 µM | > 25 µM | 8.5 µM | – | – | – | – | –
25 | COc1cc(OC)c(/C=C/c2ccccc2)c(OC)c1 [6x] | > 25 µM | > 25 µM | > 25 µM | > 25 µM | > 25 µM | – | – | – | – | –
26 | COc1ccc(/C=C/c2cc(OC)c(OC)c(OC)c2)c(Cl)c1 [6e] | – | > 25 µM | – | – | – | > 25 µM | > 25 µM | > 25 µM | > 25 µM | –
27 | COc1cc(CCc2ccncc2)cc(OC)c1OC [8i, 1-(4-Pyridyl)-2-(3,4,5-trimethoxyphenyl)ethane] | > 25 µM | > 25 µM | > 25 µM | > 25 µM | > 25 µM | – | – | – | – | –
28 | COc1ccc(CCc2ccccc2)cc1OC [8q] | > 25 µM | > 25 µM | > 25 µM | > 25 µM | > 25 µM | – | – | – | – | –
29 | COc1cc(/C=C/c2ccc(C)cc2)cc(OC)c1OC [16d, (E)-(4-Methylphenyl)-2-(3,4,5-trimethoxyphenyl)ethene] | 0.9 µM | 0.8 µM | 6.3 µM | 1.1 µM | 1.9 µM | – | – | – | – | –
30 | COc1cc(OC)c(OC)cc1/C=C/c1cc(OC)c(OC)c(OC)c1 [6v] | > 25 µM | > 25 µM | > 25 µM | > 25 µM | > 25 µM | – | – | – | – | –
31 | (E)-1-[4-(Benzyloxy)-3,5-(dimethoxy)phenyl]-2-(4-methoxyphenyl)ethene [16j] | – | – | – | – | – | – | – | – | – | > 25 µM
